Results as given in US20260226048A1, “MULTI-CYCLIC IRAK AND FLT3 INHIBITING COMPOUNDS AND USES THEREOF” (CHILDREN'S HOSPITAL MEDICAL CENTER, priority 2023, published 2026).
Where two headings read alike, the source gives them in different places.

Tests used:
FLT3 = target: T1, FLT3 (Homo sapiens, UniProt P36888); assay: RBC HotSpot Kinase Assay, FLT3; format: biochemical; design: purchased Reaction Biology (RBC HotSpot); settings: isolated kinase enzyme, 33P-ATP, P81 filter-binding
T1 sequence (P36888 27-993): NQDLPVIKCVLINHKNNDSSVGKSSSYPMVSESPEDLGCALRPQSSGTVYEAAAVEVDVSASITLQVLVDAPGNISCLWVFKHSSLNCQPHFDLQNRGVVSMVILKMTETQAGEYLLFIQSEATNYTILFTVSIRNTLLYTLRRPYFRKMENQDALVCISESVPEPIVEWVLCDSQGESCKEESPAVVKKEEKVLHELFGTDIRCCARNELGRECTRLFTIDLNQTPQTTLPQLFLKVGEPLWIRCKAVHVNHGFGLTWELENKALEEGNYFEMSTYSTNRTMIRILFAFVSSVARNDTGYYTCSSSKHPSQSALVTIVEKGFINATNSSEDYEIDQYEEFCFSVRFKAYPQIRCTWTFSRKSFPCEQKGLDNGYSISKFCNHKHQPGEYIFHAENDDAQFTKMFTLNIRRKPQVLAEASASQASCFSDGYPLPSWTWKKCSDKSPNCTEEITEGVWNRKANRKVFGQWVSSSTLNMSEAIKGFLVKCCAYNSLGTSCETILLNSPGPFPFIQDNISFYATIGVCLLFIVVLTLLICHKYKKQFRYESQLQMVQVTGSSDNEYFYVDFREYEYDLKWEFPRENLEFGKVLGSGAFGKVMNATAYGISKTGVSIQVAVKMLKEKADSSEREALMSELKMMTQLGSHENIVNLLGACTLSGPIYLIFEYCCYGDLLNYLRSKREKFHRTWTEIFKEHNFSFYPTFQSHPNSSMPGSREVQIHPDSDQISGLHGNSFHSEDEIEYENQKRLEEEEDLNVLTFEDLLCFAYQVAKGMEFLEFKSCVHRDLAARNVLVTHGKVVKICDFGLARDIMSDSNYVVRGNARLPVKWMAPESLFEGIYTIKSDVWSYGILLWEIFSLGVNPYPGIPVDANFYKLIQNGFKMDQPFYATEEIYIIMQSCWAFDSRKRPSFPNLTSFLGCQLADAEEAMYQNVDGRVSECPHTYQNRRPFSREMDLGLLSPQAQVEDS
Procedure, shortened: (§1)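 Radiometric HotSpot assay of catalytic activity with isolated recombinant kinase, possibly truncated or kinase domain only. Buffer: 20 mM Hepes pH 7.5, 10 mM MgCl2, 1 mM EGTA, 0.01% Brij35, 0.02 mg/ml BSA, 0.1 mM Na3VO4, 2 mM DTT, 1% DMSO, with cofactors specific to each kinase.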

MOLM14 D835Y cells = assay: MOLM14 D835Y cell viability assay (Cell Titer Glo); format: cell-based; settings: Homo sapiens, MOLM-14, 48 h, cell viability, Cell Titer Glo, 48 hours; read-out: MOLM14 D835Y IC50
Procedure, shortened: (§2)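 MOLM14 cells with FLT3 D835Y or F691L kinase-domain resistance mutations seeded at 1000 cells/well and exposed to compound for 48 h under standard incubator conditions. Viability read by CellTiter-Glo luminescence after 15 min at room temperature.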

[1] = tested on: MOLM14-D835Y cells (FLT3-ITD (D835Y) mutant); assay: Combination drug screening with venetoclax in MOLM14 (D835Y) cells (Cell Titre Glo, 10 × 10); format: cell-based; design: Excess HSA (sum excess HSA score, combination with venetoclax): scale not given here; settings: for Excess HSA (sum excess HSA score, combination with venetoclax): 10 × 10 dataset, Cell Titre Glo at 48 hours, optimal of 4 dose combinations, negative = synergy; for Concentration of a compound of the disclosure, or gilteritinib, needed to decrease the 62.5 nM Ven response to <10% in MOLM14(D835Y) cells: combination with 62.5 nM Venetoclax, Cell Titer Glo, 48 hours, response <10%
Experimental: (§3) These assays were performed using the Cell Titre Glo assay, measured at 48 hours.
(§4) A smaller concentration indicates higher potency to synergize with Venetoclax.

IRAK4 = target: T2, IRAK4 (Homo sapiens, UniProt Q9NWZ3); assay: RBC HotSpot Kinase Assay, IRAK4; format: biochemical; design: purchased Reaction Biology (RBC HotSpot); settings: isolated kinase enzyme, 33P-ATP, P81 filter-binding
T2 sequence (Q9NWZ3 1-460): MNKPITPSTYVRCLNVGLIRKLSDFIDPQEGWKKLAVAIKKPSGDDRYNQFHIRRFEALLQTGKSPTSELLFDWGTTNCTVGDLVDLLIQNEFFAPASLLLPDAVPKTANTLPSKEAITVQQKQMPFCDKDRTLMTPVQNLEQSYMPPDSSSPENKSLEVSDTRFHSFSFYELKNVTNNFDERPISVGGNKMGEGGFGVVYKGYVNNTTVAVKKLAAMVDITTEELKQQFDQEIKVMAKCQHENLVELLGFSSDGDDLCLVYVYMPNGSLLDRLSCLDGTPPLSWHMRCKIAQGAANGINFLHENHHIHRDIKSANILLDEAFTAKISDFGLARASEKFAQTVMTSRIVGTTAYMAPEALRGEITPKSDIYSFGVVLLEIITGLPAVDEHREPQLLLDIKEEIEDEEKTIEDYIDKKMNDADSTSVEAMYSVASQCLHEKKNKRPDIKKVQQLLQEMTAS
Procedure, shortened: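 Radiometric filter-binding activity assay with isolated recombinant kinase (construct may be truncated or catalytic domain only) in 20 mM Hepes pH 7.5, 10 mM MgCl2, 1 mM EGTA, 2 mM DTT, 1% DMSO. Compound preincubated 20 min with kinase/substrate; reaction started with 33P-ATP, run 2 h at room temperature.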

IRAK1 = target: T3, IRAK1 (Homo sapiens, UniProt P51617); assay: RBC HotSpot Kinase Assay, IRAK1; format: biochemical; settings: isolated kinase enzyme, 33P-ATP, P81 filter-binding
T3 construct: purchased Reaction Biology (RBC HotSpot)
T3 sequence (P51617 whole entry): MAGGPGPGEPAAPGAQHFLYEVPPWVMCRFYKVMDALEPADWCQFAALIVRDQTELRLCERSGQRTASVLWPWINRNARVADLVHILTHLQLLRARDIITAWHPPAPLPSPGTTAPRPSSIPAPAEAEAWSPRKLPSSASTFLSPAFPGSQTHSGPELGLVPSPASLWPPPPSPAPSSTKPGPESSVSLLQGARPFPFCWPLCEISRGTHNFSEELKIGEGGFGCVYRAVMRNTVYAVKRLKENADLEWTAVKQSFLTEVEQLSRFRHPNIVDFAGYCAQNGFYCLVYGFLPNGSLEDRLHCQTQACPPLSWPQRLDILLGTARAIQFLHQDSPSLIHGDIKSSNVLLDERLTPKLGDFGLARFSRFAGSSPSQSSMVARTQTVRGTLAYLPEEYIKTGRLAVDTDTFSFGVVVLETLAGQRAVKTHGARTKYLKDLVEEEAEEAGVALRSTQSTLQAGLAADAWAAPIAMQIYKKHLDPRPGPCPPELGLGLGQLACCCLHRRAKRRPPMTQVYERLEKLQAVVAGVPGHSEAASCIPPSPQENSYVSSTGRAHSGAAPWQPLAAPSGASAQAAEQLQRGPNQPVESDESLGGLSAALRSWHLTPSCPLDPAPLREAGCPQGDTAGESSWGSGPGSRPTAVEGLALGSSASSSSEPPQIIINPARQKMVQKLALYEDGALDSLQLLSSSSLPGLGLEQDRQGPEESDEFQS
Procedure, shortened: as §1

THP1 cells (FLT3 WT) = assay: Combination drug screening with venetoclax in THP1 cells (Cell Titre Glo, 10 × 10); format: cell-based; settings: for Excess HSA (sum excess HSA score, combination with venetoclax): 10 × 10 dataset, Cell Titre Glo at 48 hours, optimal of 4 dose combinations, negative = synergy; for Concentration needed to decrease the 312.5 nM Venetoclax response to <20%: Cell Titer Glo at 48 hours
Experimental: as §3, §4

[2] = tested on: NF-κB-inducible SEAP reporter in THP-1-Blue NF-κB cells; assay: NF-kB SEAP reporter assay in THP-1-Blue NF-κB cells; format: cell-based; settings: 24 hours
Experimental: THP-1-Blue NF-κB cells (InvivoGen) carrying a stable integrated NF-κB-inducible secreted embryonic alkaline phosphatase (SEAP) reporter construct were plated at a concentration of 1×10^5 cells per well. The cells were stimulated with Pam3CSK4 (1 ng/mL) or hIL1B (1 ng/mL). After 10-20 minutes, the cells were then treated with vehicle (DMSO) or serial dilutions of the test compounds (10 doses tested for each test compound, with a 1:10 dilution series starting at 1 μM or 3 μM) with a final volume of 200 μL for 24 hours at 37° C. After 24 hours, the cells were centrifuged and 20 μL supernatant was incubated with 180 μL QUANTI-Blue reagent at 37° C. for 30-60 minutes. The levels of NF-κB-induced was measured in a microplate reader at 620 nm.

MOLM14 F691L cells = assay: MOLM14 F691L cell viability assay (Cell Titer Glo); format: cell-based; settings: Homo sapiens, MOLM-14; cell viability, Cell Titer Glo, 48 hours; read-out: MOLM14 F691L IC50
Procedure, shortened: as §2

[3] = THP-1-Blue NF-κB cells stimulated with Pam3CSK4 (1 ng/mL), read-out: NF-κB Pam3SCK4 IC50
[4] = THP-1-Blue NF-κB cells stimulated with hIL1B (1 ng/mL), read-out: NF-κB IL1B IC50

SMILES | IC50 (FLT3) [µM] | IC50 (MOLM14 D835Y cells) [µM] | Excess HSA (sum excess HSA score, combination with venetoclax) [1] | Concentration of a compound of the disclosure, or gilteritinib, needed to decrease the 62.5 nM Ven response to <10% in MOLM14(D835Y) cells [1] [nM] | IC50 (IRAK4) [µM] | IC50 (IRAK1) [µM] | Excess HSA (sum excess HSA score, combination with venetoclax) (THP1 cells (FLT3 WT)) | Concentration needed to decrease the 312.5 nM Venetoclax response to <20% (THP1 cells (FLT3 WT)) [µM] | IC50 [2, 3] [µM] | IC50 [2, 4] [µM] | IC50 (MOLM14 F691L cells) [µM]
CC(O)(c1ccc2ncc(-c3nc(N[C@H]4CNCC[C@@H]4F)ncc3F)n2c1)C(F)(F)F (single isomer, unassigned) [Compound 34a] | 0.0006 | 0.051 | −1437.9420 | 100 | 0.002 | 0.004 | −683.5 | 1.25 |  |  | 
COc1cc2ncc(-c3nc(N[C@@H]4CCCNC4)ncc3F)n2nc1C12CC(C1)C2 [Compound 68a, (R)-4-(6-(bicyclo[1.1.1]pentan-1-yl)-7-methoxyimidazo[1,2-b]pyridazin-3-yl)-5-fluoro-N-(piperidin-3-yl)pyrimidin-2-amine] | < 0.0005 | 0.003 |  |  | 0.0008 | 0.0009 |  |  | 0.144 | 0.108 | 0.02
COc1cc2ncc(-c3nc(N[C@@H]4CCCNC4)ncc3F)n2nc1C1COC1 [Compound 94a, (R)-5-fluoro-4-(7-methoxy-6-(oxetan-3-yl)imidazo[1,2-b]pyridazin-3-yl)-N-(piperidin-3-yl)pyrimidin-2-amine] | < 0.0005 | 0.006 |  |  | 0.004 | 0.028 |  |  | 0.188 | 0.206 | 0.04
COc1cnc(N[C@H]2CNC[C@@H]2F)nc1-c1cnc2cc(OC)c(C3CC3)nn12 [Compound 104a, 4-(6-cyclopropyl-7-methoxyimidazo[1,2-b]pyridazin-3-yl)-N-((3S,4S)-4-fluoropyrrolidin-3-yl)-5-methoxypyrimidin-2-amine] | 0.014 | 0.711 | −2179 |  | 0.025 | 4.86 |  |  |  |  | 6.34
COc1cc2ncc(-c3nc(N[C@H]4CNC[C@@H]4F)ncc3F)n2nc1N1CCOCC1 [Compound 119a, 5-fluoro-N-((3S,4S)-4-fluoropyrrolidin-3-yl)-4-(7-methoxy-6-morpholinoimidazo[1,2-b]pyridazin-3-yl)pyrimidin-2-amine] | < 0.0005 | 0.004 |  |  | < 0.0005 | 0.001 |  |  | 0.057 | 0.069 | 0.045
COc1cc2ncc(-c3nc(N[C@@H]4CCCNC4)ncc3F)n2nc1N1CCOCC1 [Compound 120a, (R)-5-fluoro-4-(7-methoxy-6-morpholinoimidazo[1,2-b]pyridazin-3-yl)-N-(piperidin-3-yl)pyrimidin-2-amine] | < 0.0005 | 0.005 |  |  | 0.01 | 0.01 |  |  | 0.339 | 0.217 | 0.045
COc1cc2ncc(-c3nc(N[C@H]4CNCC[C@@H]4F)ncc3F)n2nc1N1CCOCC1 [Compound 121a, 5-fluoro-N-((3S,4S)-4-fluoropiperidin-3-yl)-4-(7-methoxy-6-morpholinoimidazo[1,2-b]pyridazin-3-yl)pyrimidin-2-amine] | < 0.0005 | 0.002 |  |  | 0.0007 | 0.001 |  |  | 0.089 | 0.057 | 0.02
COc1cc2ncc(-c3nc(N[C@H]4CNCC[C@@H]4F)ncc3F)n2nc1N1CCS(=O)(=O)CC1 [Compound 122a, 4-(3-(5-fluoro-2-(((3S,4S)-4-fluoropiperidin-3-yl)amino)pyrimidin-4-yl)-7-methoxyimidazo[1,2-b]pyridazin-6-yl)thiomorpholine 1,1-dioxide] | < 0.0005 | 0.011 |  |  | 0.018 | 0.022 |  |  | 0.407 | 0.407 | 0.127
COc1cc2ncc(-c3nc(N[C@H]4CNCC[C@@H]4F)ncc3F)n2nc1[C@H]1C[C@H](O)C1 [Compound 125a, (Trans)-3-(3-(5-fluoro-2-(((3S,4S)-4-fluoropiperidin-3-yl)amino)pyrimidin-4-yl)-7-methoxyimidazo[1,2-b]pyridazin-6-yl)cyclobutan-1-ol] | < 0.0005 | 0.002 |  |  | < 0.0005 | < 0.0005 |  |  | 0.03 | 0.029 | 0.016
COc1cc2ncc(-c3nc(N[C@H]4CNCC[C@@H]4F)ncc3F)n2nc1[C@H]1C[C@@H](O)C1 [Compound 126a, Cis-3-(3-(5-fluoro-2-(((3S,4S)-4-fluoropiperidin-3-yl)amino)pyrimidin-4-yl)-7-methoxyimidazo[1,2-b]pyridazin-6-yl)cyclobutan-1-ol] | < 0.0005 | 0.004 |  |  | < 0.0005 | 0.037 |  |  | 0.192 | 0.183 | 0.08
CCc1nc(C(N)=O)c(Nc2ccc(N3CCC(N4CCN(C)CC4)CC3)c(OC)c2)nc1NC1CCOCC1 [Gilteritinib, reference compound] |  |  | −1556 | 125 |  |  | −1626 | 10 |  |  | 
